Data: patent publication US12053459B2, “CDK2 inhibitors and methods of using the same” (Cedilla Therapeutics, Inc., priority 2021, dated 2024)

Columns and labels:
CDK2/Cyclin E1(14-475) = CDK2/Cyclin E1(14-475) (Homo sapiens, UniProt P24941); assay: Caliper LabChip EZ Reader mobility shift assay, inhibition of CDK2/Cyclin E1 activity; assay type: biochemical; settings: class symbols A-D
Protocol: Inhibition of CDK2/Cyclin E1 activity in the presence of compounds of the present disclosure was evaluated using a Caliper LabChip® EZ Reader mobility shift assay. In the assay, activated CDK2/Cyclin E1 catalyzes the phosphorylation of a fluorescently tagged peptide 5-FAM-QSPKKG-CONH2 (PerkinElmer, FL Peptide 18) which induces a difference in capillary electrophoresis mobility. The peptide substrate and product were measured, and the conversion ratio was used to determine the inhibition (as % activity and IC50 values) of CDK2/Cyclin E1. Reactions contained 50 mM HEPES pH 7.5, 10 mM MgCl2, 1 mM EDTA, 2 mM DTT, 0.01% Brij35, 0.5 mg/mL BSA, 0.1% DMSO, 2.5 nM CDK2/Cyclin E1(14-475), 100 μM ATP, and 1.5 μM fluorescent peptide substrate.
Dose titrations of inhibitors in 100% DMSO were combined with 3.25 nM CDK2/Cyclin E1(14-475) and 130 μM of ATP in reaction buffer. The mixtures were incubated for 30 minutes before the addition of fluorescent peptide substrate to initiate the kinase reaction. The final conditions were 2.5 nM CDK2/Cyclin E1(14-475), 100 μM ATP, and 1.5 μM fluorescent peptide. The reactions were stopped after 100 minutes with the addition of EDTA (6 mM final EDTA concentration). The stopped reactions were analyzed on a Caliper LabChip® EZ Reader II. The conversion ratios were normalized to yield % activity, plotted against compound concentration, and fit to a four-parameter equation to determine the IC50 for each compound.

Kuramochi cells = assay: BrdU cell proliferation assay (colorimetric ELISA), Kuramochi cells; assay type: cell-based; settings: class symbols A-D
Protocol: A BrdU assay was used as a measure of proliferation based on the DNA replication process of proliferating cells. BrdU, a pyrimidine analog, is added to the cell culture and incorporated into the DNA of proliferating cells. The presence of the BrdU analog was then measured through a colorimetric ELISA. After fixation and permeabilization of cells, peroxidase-conjugated antibody recognizing BrdU is added and allowed to incubate, followed by thorough washing to remove unbound antibody. In order to quantify the amount of bound antibody, peroxidase substrate is added and produces a color that can be measured at 450 nm.
On day −1, Kuramochi cells (Sekisui XenoTech JCRB0098) were seeded at 2,000 cells/well in columns 2-12 of a 96 well plate (Corning, CLS3596) in 150 uL media and allowed to adhere overnight at 37 degree with 5% CO2. In order to assess specificity of the compounds, Kuramochi RB^KO cells were also plated and treated, as RB^KO cells were not expected to show a proliferative response to CCNE/CDK specific inhibitors.
On day 0, the source plate was prepared by adding 10 mM compounds and performing 3-fold serial dilutions for a 4-point dose response of each compound. Using a multichannel pipette, 2 uL of the contents of the source plate were stamped into an intermediate plate with 500 uL of RPMI 1640 Media, GlutaMAX Supplement (Life Technologies, 61870127) in each well of a Nunc 96 DeepWell™ plate, non-treated 96 DeepWell plate, 2 mL/well, sterile, natural, 60/cs (Sigma Z717274) and mixed thoroughly. 50 uL from row A of this intermediate plate were added to rows A-H of one plate of previously seeded Kuramochi cells, and each subsequent row of the intermediate plate was added to a full plate of cells.
On day 4, the plates were developed using the BrdU ELISA Cell Proliferation Assay according to manufacturer's instructions (Roche, 11647229001). Briefly, BrdU was diluted 1:100 in Gibco®, Opti-MEM® and 20 μL/well was added, shaken for 10 minutes at 350 rpm, and then returned to the incubator for 1 hour. Following incubation, the medium was discarded, and the cells were fixed by adding 200 μL of Fix/Denature solution. The anti-BrdU peroxidase antibody was diluted 1:1000 in OptiMEM, added at 100 μL/well, and incubated while shaking (350 rpm) for one hour. Three washes with PBS were performed to remove any unbound antibody, followed by the addition of 100 μL of substrate solution to each well. […] was then added to halt the reaction, and plates were read out using an Envision spectrophotometer (Perkin Elmer) set to read 450 nm absorbance. Background absorbance values from empty wells were subtracted from all samples and then normalized to DMSO treated wells.

Row | SMILES | IC50 (CDK2/Cyclin E1(14-475)) [µM] | IC50 (Kuramochi cells) [µM]
1 | CNC(=O)[C@H](CCCc1ccccc1)NC(=O)C1CN(C(=O)Cc2c[nH]c3cc(Cl)ccc23)CC2CN(C(=O)c3ccc(NC(=O)C4CC4)c(OC)c3)CC21 (some centres unmarked) [I-54] | > 10 | > 10
2 | CNC(=O)[C@H](CCCc1ccccc1)NC(=O)C1CN(C(=O)Cc2c[nH]c3cc(Cl)ccc23)CC2CN(C(=O)c3cc(C)[nH]n3)CC21 (some centres unmarked) [I-56] | 0.5 to 5 | > 10
3 | CNC(=O)[C@H](CCCc1ccccc1)NC(=O)C1CN(C(=O)Cc2c[nH]c3cc(Cl)ccc23)CC2CN(C(=O)c3ncccn3)CC21 (some centres unmarked) [I-57] | > 10 | > 10
4 | CCc1ccc(C(=O)N2CC3CN(C(=O)Cc4c[nH]c5cc(Cl)ccc45)CC(C(=O)N[C@@H](CCCc4ccccc4)C(=O)NC)C3C2)nc1 (some centres unmarked) [I-58] | > 10 | > 10
5 | CNC(=O)[C@H](CCCc1ccccc1)NC(=O)C1CN(C(=O)Cc2c[nH]c3cc(Cl)ccc23)CC2CN(C(=O)c3ccc(-c4cncnc4)cc3)CC21 (some centres unmarked) [I-59] | > 10 | > 10
6 | CNC(=O)[C@H](CCCc1ccccc1)NC(=O)C1CN(C(=O)Cc2c[nH]c3cc(Cl)ccc23)CC2CN(C(=O)c3cncc(C)n3)CC21 (some centres unmarked) [I-60] | > 10 | > 10
7 | CNC(=O)[C@H](CCCc1ccccc1)NC(=O)C1CN(C(=O)Cc2c[nH]c3cc(Cl)ccc23)CC2CN(C(=O)c3cc4ccccc4[nH]3)CC21 (some centres unmarked) [I-61] | > 10 | > 10
8 | CNC(=O)[C@H](CCCc1ccccc1)NC(=O)C1CN(C(=O)Cc2c[nH]c3cc(Cl)ccc23)CC2CN(C(=O)c3ccc(NC(=O)CC4CC4)c(OC)c3)CC21 (some centres unmarked) [I-69] | > 10 | > 10
9 | CNC(=O)[C@H](CCCc1ccccc1)NC(=O)C1CN(C(=O)Cc2c[nH]c3cc(Cl)ccc23)CC2CN(C(=O)c3cnc(-c4ccccc4)s3)CC21 (some centres unmarked) [I-70] | > 10 | > 10
10 | CNC(=O)[C@H](CCCc1ccccc1)NC(=O)C1CN(C(=O)Cc2c[nH]c3cc(Cl)ccc23)CC2CN(C(=O)c3cc(-c4ccccc4)n(C)n3)CC21 (some centres unmarked) [I-71] | > 10 | > 10
11 | CNC(=O)[C@H](CCCc1ccccc1)NC(=O)C1CN(C(=O)Cc2c[nH]c3cc(Cl)ccc23)CC2CN(C(=O)c3c[nH]c(-c4ccccc4)n3)CC21 (some centres unmarked) [I-74] | > 10 | > 10
12 | CNC(=O)[C@H](CCCc1ccccc1)NC(=O)C1CN(C(=O)Cc2c[nH]c3cc(Cl)ccc23)CC2CN(C(=O)c3ccc(-c4cccnc4)cc3)CC21 (some centres unmarked) [I-79] | 5 to 10 | > 10
13 | CNC(=O)[C@H](CCCc1ccccc1)NC(=O)C1CN(C(=O)Cc2c[nH]c3cc(Cl)ccc23)CC2CN(C(=O)c3ccc(OC(F)(F)F)c(OC)c3)CC21 (some centres unmarked) [I-82] | 0.5 to 5 | 5 to 10
14 | CNC(=O)[C@H](CCCc1ccccc1)NC(=O)C1CN(C(=O)Cc2c[nH]c3cc(Cl)ccc23)CC2CN(C(=O)c3cc4c(c(OC)c3)OC(C)(C)C4)CC21 (some centres unmarked) [I-83] | ≤ 0.5 | > 10
15 | CNC(=O)[C@H](CCCc1ccccc1)NC(=O)C1CN(C(=O)Cc2c[nH]c3cc(Cl)ccc23)CC2CN(C(=O)c3ccc(OC(C)C)c4occc34)CC21 (some centres unmarked) [I-85] | ≤ 0.5 | > 10
16 | COc1cc(C(=O)N2CC3CN(C(=O)Cc4c[nH]c5cc(Cl)ccc45)CC(C(=O)N[C@@H]4CCCN(Cc5ccccc5)C4)C3C2)ccc1OC(C)C (stereo partly drawn) [I-88, N—((R)-1-benzylpiperidin-3-yl)-5-(2-(6-chloro-1H-indol-3-yl)acetyl)-2-(4-isopropoxy-3-methoxybenzoyl)octahydro-1H-pyrrolo[3,4-c]pyridine-7-carboxamide] | > 10 | > 10
17 | COc1cc(C(=O)N2CC3CN(C(=O)Cc4c[nH]c5cc(Cl)ccc45)CC(C(=O)NC4CCCN(C(=O)c5ccccc5)C4)C3C2)ccc1OC(C)C (centres unmarked) [I-89] | > 10 | > 10
18 | COc1cc(C(=O)N2CC3CN(C(=O)Cc4c[nH]c5cc(Cl)ccc45)CC(C(=O)NC4CCCN(C(=O)Cc5ccccc5)C4)C3C2)ccc1OC(C)C (centres unmarked) [I-90] | > 10 | > 10
19 | CNC(=O)[C@H](CCCc1ccccn1)NC(=O)C1CN(C(=O)Cc2c[nH]c3cc(Cl)ccc23)CC2CN(C(=O)c3ccc(OC(C)C)c(OC)c3)CC21 (some centres unmarked) [I-91] | 0.5 to 5 | > 10
20 | CNC(=O)[C@H](NC(=O)C1CN(C(=O)Cc2c[nH]c3cc(Cl)ccc23)CC2CN(C(=O)c3ccc(OC(C)C)c(OC)c3)CC21)[C@@H](C)OCc1ccccc1 (some centres unmarked) [I-92] | > 10 | > 10
21 | CNC(=O)C(CCCC1CCCC1)NC(=O)C1CN(C(=O)Cc2c[nH]c3cc(Cl)ccc23)CC2CN(C(=O)c3ccc(OC(C)C)c(OC)c3)CC21 (centres unmarked) [I-93] | 0.5 to 5 | > 10
22 | CNC(=O)[C@H](CCCC1CCC(C(F)(F)F)CC1)NC(=O)C1CN(C(=O)Cc2c[nH]c3cc(Cl)ccc23)CC2CN(C(=O)c3ccc(OC(C)C)c(OC)c3)CC21 (some centres unmarked) [I-94] | > 10 | > 10

Now from value to compound, other results behind:

Row | IC50 (CDK2/Cyclin E1(14-475)) [µM] | SMILES | IC50 (Kuramochi cells) [µM]
23 | > 10 | CNC(=O)[C@H](CCCc1ccccc1)NC(=O)C1CN(C(=O)Cc2c[nH]c3cc(Cl)ccc23)CC2CN(C(=O)c3nn(C)c4ccccc34)CC21 (some centres unmarked) [I-47] | > 10
24 | > 10 | CNC(=O)[C@H](CCCc1ccccc1)NC(=O)C1CN(C(=O)Cc2c[nH]c3cc(Cl)ccc23)CC2CN(C(=O)c3c4ccccc4nn3C)CC21 (some centres unmarked) [I-48] | > 10
25 | 5 to 10 | CNC(=O)[C@H](CCCc1ccccc1)NC(=O)C1CN(C(=O)Cc2c[nH]c3cc(Cl)ccc23)CC2CN(C(=O)c3ccc(CC(C)C)cc3)CC21 (some centres unmarked) [I-52] | > 10
26 | > 10 | CNC(=O)[C@H](CCCc1ccccc1)NC(=O)C1CN(C(=O)Cc2c[nH]c3cc(Cl)ccc23)CC2CN(C(=O)c3cnn(C)c3)CC21 (some centres unmarked) [I-55] | > 10
27 | > 10 | CNC(=O)[C@H](CCCc1ccccc1)NC(=O)C1CN(C(=O)Cc2c[nH]c3cc(Cl)ccc23)CC2CN(C(=O)c3ccc4c(N)n[nH]c4c3)CC21 (some centres unmarked) [I-65] | > 10
28 | > 10 | CNC(=O)[C@H](CCCc1ccccc1)NC(=O)C1CN(C(=O)Cc2c[nH]c3cc(Cl)ccc23)CC2CN(C(=O)c3ccc(NS(C)(=O)=O)c(OC)c3)CC21 (some centres unmarked) [I-66] | > 10
29 | > 10 | CNC(=O)[C@H](CCCc1ccccc1)NC(=O)C1CN(C(=O)Cc2c[nH]c3cc(Cl)ccc23)CC2CN(C(=O)c3ccc4[nH]c(=O)oc4c3)CC21 (some centres unmarked) [I-72] | > 10
30 | > 10 | CNC(=O)[C@H](CCCc1ccccc1)NC(=O)C1CN(C(=O)Cc2c[nH]c3cc(Cl)ccc23)CC2CN(C(=O)c3ccc4c(c3)oc(=O)n4C)CC21 (some centres unmarked) [I-73] | > 10
31 | > 10 | CNC(=O)[C@H](CCCc1ccccc1)NC(=O)C1CN(C(=O)Cc2c[nH]c3cc(Cl)ccc23)CC2CN(C(=O)c3ccc4oc(=O)[nH]c4c3)CC21 (some centres unmarked) [I-75] | > 10
32 | > 10 | CNC(=O)[C@H](CCCc1ccccc1)NC(=O)C1CN(C(=O)Cc2c[nH]c3cc(Cl)ccc23)CC2CN(C(=O)c3ccc(C)cn3)CC21 (some centres unmarked) [I-78] | > 10
33 | > 10 | CNC(=O)[C@H](CCCc1ccccc1)NC(=O)C1CN(C(=O)Cc2c[nH]c3cc(Cl)ccc23)CC2CN(C(=O)c3ccc4cccnc4c3)CC21 (some centres unmarked) [I-80] | > 10
34 | 0.5 to 5 | CNC(=O)[C@H](CCCc1ccccc1)NC(=O)C1CN(C(=O)Cc2c[nH]c3cc(Cl)ccc23)CC2CN(C(=O)c3ccc4c(c3)c(OC)nn4C(C)C)CC21 (some centres unmarked) [I-84] | > 10
